Our source for the TGI and GI50 values is PubChem BioAssay (NCI).

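Growth conditions: 96-well plates. Treatment: test compound, 48 hours, 5 concentrations. Analysis: linear interpolation between bracketing concentrations; unreached endpoints set to highest concentration. At the GI50, growth is halved. TGI denotes the concentration required for complete inhibition of growth.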

In the first experiment the test system is PC-3 prostate. The experiment is described as follows: growth of human tumour cells (NCI), 48 h.
Regarding `O=C(c1ccc(Cl)cc1)c1cnc(Nc2ccccc2Cl)s1`, the TGI came out at 55.5 µM.

The next experiment deals with RPMI-8226 leukemia. The experiment is described as follows: growth of human tumour cells (NCI), 48 h.
As to `c1ccc(SC2CCSc3ccccc3C2Sc2ccccc2)cc1` (configuration not stated), the TGI was > 100 µM. Same read-out and setting: next, `COC(=O)[C@]1(C)CCCC2(C)C1CC[C@H]1C=C(C)[C@H]3CCC12C3` (some centres not stated): > 100 µM; `O=C(Nc1cc(Cl)ccc1Cl)c1cc2cccc(Cl)c2oc1=O`: > 100 µM; `COC1C(O)=C2C(=O)O/C(C)=C/C=C/C=C/C=C\CC(c3ccccc3)NC(=O)\C=C/C=C\C=C\C=C\[C@@]2(C)[C@@H]1O` (some centres not stated): 0.0445 µM. On the same count and under the same terms, then `CCOC(=O)C(C)(C)Oc1ccc2c(C)c(-c3ccc(Cl)cc3)c(=O)oc2c1`, with > 100 µM; and `Cc1c(Cl)cccc1N1C(=O)C(Cl)=C(Cl)C1=O`, with > 89.8 µM.

As for `COc1ccc(NC(=O)/C(N=O)=C(/C)O)cc1`, the TGI was > 100 µM. Turning to `COc1cccc(/C=N/[N-]C(=O)c2ccncc2)c1[O-].[Cu+2].[OH3+]`, the GI50 was > 100 µM and the TGI is > 100 µM. Regarding `O=C1NC(=S)NNC12c1ccccc1-c1ccccc12`, the TGI was > 10 µM. The same measure, in the same setting: next, `CCc1c(OC(C)=O)c2c(NC3OC(COC(C)=O)C(OC(C)=O)C(OC(C)=O)C3OC(C)=O)nc(OC)nc2oc1=O` (configuration not stated): > 100 µM.

Regarding `O=C(NC(=O)c1cn(CCNCCO)c(=O)[nH]c1=O)OCc1ccccc1`, the TGI is > 100 µM. For the molecule `O=[N+]([O-])c1ccc(-n2nnc(C3=NCCN3)c2-c2ccc(Cl)cc2)cc1`, the TGI was > 100 µM.

For the molecule `CCSc1[nH]c(Nc2nc(-c3ccccc3)n(-c3ccccc3)n2)c(C(N)=O)c1C(N)=O`, the TGI was > 10 µM.

On to `O=C(c1ccc(Cl)cc1)c1cnc(Nc2ccccc2Cl)s1`, for which the TGI is > 100 µM. In turn, `CCC1C2C=CC(CC2)N1S(=O)(=O)c1ccc(C)cc1` (configuration not stated) displayed a TGI of 42.3 µM. On the same count and under the same terms, next, `CCOc1ccc(N2C(=O)/C(=C/c3ccc(N(CCC#N)CCC#N)cc3)N=C2c2cc([N+](=O)[O-])ccc2Cl)cc1`: > 100 µM; `COc1ccc(-c2cc(-c3ccccc3)c(C#N)c(=O)n2C2OC(CO)C(O)C(O)C2O)cc1` (configuration not stated): > 100 µM. The same measure, in the same setting: next, `O=C(N/N=C1/C(=O)N(c2ccc(Cl)cc2Cl)C(=O)C(=O)C1c1nc2ccccc2o1)c1ccccc1O` (configuration not stated): > 100 µM; `CC(=O)O[C@H]1CCC2[C@@H]3CCC4=C(O)c5nocc5C[C@]4(C)C3CC[C@@]21C` (some centres not stated): > 100 µM. On the same count and under the same terms, then `O=C(O)CSc1n[nH]c(-c2ccccc2)n1`, with > 100 µM. Regarding `CCCCCCC[CH2][Sn]1([CH2]CCCCCCC)[O]C(=O)c2cccnc2[S]1`, the GI50 was > 100 µM and the TGI is > 100 µM. With `O=C1[C@@H]2C3c4ccccc4C([C@@H]2C(=O)N1c1ccccc1)S3(=O)=O`, the TGI was > 100 µM. Same read-out and setting: next, `COc1ccc(/C(=N\NC(=O)C(N)=O)C(c2ccc(OC)cc2)C2(O)C(=O)Nc3c(Cl)cccc32)cc1` (configuration not stated): > 100 µM; `CCc1cccc(C)c1NC(=O)C(=O)Cc1nc2ccccc2o1`: > 100 µM; `O=C(O)[C@H](NS(=O)(=O)c1ccc2ccccc2c1)c1ccccc1`: > 100 µM.

Turning to `O=C1c2ccccc2C2(O)c3cc4ccccc4cc3OC12O` (configuration not stated), the TGI was > 100 µM.

In the next experiment the test system is SF-268 CNS. The experiment in a line: growth of human tumour cells (NCI), 48 h.
As for `c1ccc(SC2CCSc3ccccc3C2Sc2ccccc2)cc1` (configuration not stated), the TGI was > 100 µM. On the same count and under the same terms, next, `COC(=O)[C@]1(C)CCCC2(C)C1CC[C@H]1C=C(C)[C@H]3CCC12C3` (some centres not stated): > 100 µM. On the same count and under the same terms, next, `O=c1n(-c2ccccc2)c(=O)n2n1C1C=CC2C2C(C1)C2(Cl)Cl` (configuration not stated): > 100 µM; `COC1C(O)=C2C(=O)O/C(C)=C/C=C/C=C/C=C\CC(c3ccccc3)NC(=O)\C=C/C=C\C=C\C=C\[C@@]2(C)[C@@H]1O` (some centres not stated): 0.318 µM. `Cc1ccc(Cn2c(C)nc3c2C(=O)c2ccccc2C3=O)cc1` displayed a TGI of 36.9 µM. The same measure, in the same setting: next, `CCOC(=O)C(C)(C)Oc1ccc2c(C)c(-c3ccc(Cl)cc3)c(=O)oc2c1`: > 100 µM; `Cc1c(Cl)cccc1N1C(=O)C(Cl)=C(Cl)C1=O`: > 100 µM; `COc1ccc(NC(=O)/C(N=O)=C(/C)O)cc1`: > 100 µM. `COc1cccc(/C=N/[N-]C(=O)c2ccncc2)c1[O-].[Cu+2].[OH3+]`: the GI50 was 28 µM and the TGI is > 100 µM. As for `O=C1NC(=S)NNC12c1ccccc1-c1ccccc12`, the TGI is > 10 µM. On the same count and under the same terms, next, `O=C(NC(=O)c1cn(CCNCCO)c(=O)[nH]c1=O)OCc1ccccc1`: > 100 µM. On the same count and under the same terms, next, `O=[N+]([O-])c1ccc(-n2nnc(C3=NCCN3)c2-c2ccc(Cl)cc2)cc1`: > 100 µM. Still for that read-out and setting: next, `CCSc1[nH]c(Nc2nc(-c3ccccc3)n(-c3ccccc3)n2)c(C(N)=O)c1C(N)=O`: > 10 µM; `O=C(c1ccc(Cl)cc1)c1cnc(Nc2ccccc2Cl)s1`: 57.6 µM; `CCC1C2C=CC(CC2)N1S(=O)(=O)c1ccc(C)cc1` (configuration not stated): 67.3 µM.

As for `CCOc1ccc(N2C(=O)/C(=C/c3ccc(N(CCC#N)CCC#N)cc3)N=C2c2cc([N+](=O)[O-])ccc2Cl)cc1`, the TGI was > 100 µM.

In the case of `COc1ccc(-c2cc(-c3ccccc3)c(C#N)c(=O)n2C2OC(CO)C(O)C(O)C2O)cc1` (configuration not stated), the TGI is > 100 µM. The same measure, in the same setting: next, `CCOC(=O)C1(c2ccccc2)CCC(=O)CC1`: > 100 µM; `O=C(N/N=C1/C(=O)N(c2ccc(Cl)cc2Cl)C(=O)C(=O)C1c1nc2ccccc2o1)c1ccccc1O` (configuration not stated): > 100 µM. Same read-out and setting: next, `CC(=O)O[C@H]1CCC2[C@@H]3CCC4=C(O)c5nocc5C[C@]4(C)C3CC[C@@]21C` (some centres not stated): > 100 µM. Turning to `O=C(O)CSc1n[nH]c(-c2ccccc2)n1`, the TGI is > 100 µM. Same read-out and setting: next, `O=C1[C@@H]2C3c4ccccc4C([C@@H]2C(=O)N1c1ccccc1)S3(=O)=O`: > 100 µM; `COc1ccc(/C(=N\NC(=O)C(N)=O)C(c2ccc(OC)cc2)C2(O)C(=O)Nc3c(Cl)cccc32)cc1` (configuration not stated): > 100 µM.

On to `Cc1ccc(S(=O)(=O)N/N=C/c2oc(-c3ccncc3)c(-c3ccncc3)c2[N+](=O)[O-])cc1`, for which the TGI is > 100 µM. Turning to `CCc1cccc(C)c1NC(=O)C(=O)Cc1nc2ccccc2o1`, the TGI was > 100 µM. Same read-out and setting: then `O=C(O)[C@H](NS(=O)(=O)c1ccc2ccccc2c1)c1ccccc1`, with > 100 µM; and `CCOc1ccc2c(c1)[n+]([O-])c(-c1ccccc1Cl)c(N)[n+]2[O-]`, with > 100 µM; and `O=C1c2ccccc2C2(O)c3cc4ccccc4cc3OC12O` (configuration not stated), with > 100 µM. On the same count and under the same terms, next, `CN(C)c1c([O-])c(=[N+](C)C)c1=O`: > 100 µM.

The next experiment relates to SK-MEL-5 melanoma. The experiment is described as follows: growth of human tumour cells (NCI), 48 h.
On to `c1ccc(SC2CCSc3ccccc3C2Sc2ccccc2)cc1` (configuration not stated), for which the TGI was > 100 µM. As to `COC(=O)[C@]1(C)CCCC2(C)C1CC[C@H]1C=C(C)[C@H]3CCC12C3` (some centres not stated), the TGI was > 100 µM. `O=C(Nc1cc(Cl)ccc1Cl)c1cc2cccc(Cl)c2oc1=O`: the TGI was > 100 µM.
